{"source": "paper PMC2409716", "about": "(British Journal of Cancer, 2004)", "key": {"UGT1A": {"system": "UGT1A", "conditions": "2002, cited from earlier work"}, "[1]": {"experiment": "Noncompartmental plasma pharmacokinetics of irinotecan and SN-38 with/without R115777"}, "[2]": {"conditions": "human, in vivo"}, "clinical [3]": {"experiment": "clinical", "conditions": "human"}, "[4]": {"conditions": "human, in vivo, 350 mg"}, "[5]": {"system": "patients with a solid malignancy", "experiment": "Phase I toxicity evaluation (NCI common toxicity criteria v2.0, DLT/MTD) of irinotecan with oral R115777", "format": "in vivo, human", "protocol": "In the continuous regimen, R115777 was administered on days 3–21 of cycle 1, and then continuously thereafter, starting again on day 1 of subsequent cycles. In the intermittent regimen, R115777 was administered on days 3–14 of the first cycle, and then starting again on day 1 of subsequent cycles, but without administration on days 15–21.\nThree patients were accrued at the starting dose level, and in the absence of DLT, another three patients were entered at the next dose level. For safety reasons, the next dose level was not opened until at least three patients were assessable for toxicity in the first cycle. In case only one patient developed DLT (see below), the dose level was expanded with additional patients to a total of six. […] The MTD (recommended dose) was defined as one dose level below the level at which ⩾2 of six patients experienced DLT.\nToxicity was assessed by the National Cancer Institute Version 2.0 common toxicity criteria on a scale graded 0–4 (Available: http://ctep.cancer.gov/reporti ng/ctc.html (accessed: February 27, 2004)). […] Tumours were assessed radiologically before patients were enrolled on the study, and after every even-numbered cycle. […]"}, "[6]": {"set-up": "method as in earlier work", "conditions": "ref unpublished data, Johnson & Johnson Pharmaceutical Research and Development, cited from earlier work"}, "clinical [7]": {"experiment": "clinical", "conditions": "human, plasma, po"}, "[8]": {"experiment": "Noncompartmental plasma pharmacokinetics of R115777 with/without irinotecan", "conditions": "for AUC12 h Ratio (R115777 with irinotecan to R115777 alone) / Cmax Ratio (R115777 with irinotecan to R115777 alone): least-squares means, 90% confidence limits in parentheses; for tmax: median"}, "ABCB1 (P-glycoprotein)": {"system": "ABCB1 (P-glycoprotein)", "set-up": "method as in earlier work", "conditions": "ref unpublished data, Johnson & Johnson Pharmaceutical Research and Development, cited from earlier work"}, "CYP3A4": {"system": "CYP3A4", "set-up": "method as in Bohets, 1998", "conditions": "human hepatic microsomal preparations; at in vitro concentrations five-fold higher than the peak concentrations observed in the present study; ref Bohets, 1998; cited from earlier work"}, "[9]": {"conditions": "preclinical studies, ref Gagne et al"}, "[10]": {"conditions": "Continuous, (+) R115777 200 mg b.i.d. (cycle 2), irinotecan 200–350 mg m^−2, dose-adjusted to 350 mg m^−2, mean±s.d., 11–13 patients"}, "[11]": {"conditions": "Intermittent, oral R115777 200–400 mg b.i.d., dose-normalised to 200 mg, (+) Irinotecan 350 mg m^−2, mean±s.d., 12–13 patients"}, "[12]": {"conditions": "continuous, relative to monotherapy, not significant"}, "[13]": {"conditions": "intermittent regimens, not statistically significant"}}, "note": "Where two headings read alike, the source gives them in different places.", "data": [{"molecule": "CCc1c2c(nc3ccc(O)cc13)-c1cc3c(c(=O)n1C2)COC(=O)[C@]3(O)CC", "note": "[SN-38, 7-ethyl-10-hydroxycamptothecin]", "values": [{"measurement": "isozymes with a minor role in glucuronidation", "setting": "UGT1A; [9]", "value": "UGT1A6, UGT1A8, and UGT1A10"}, {"measurement": "major isozymes involved in glucuronidation", "setting": "UGT1A; [9]", "value": "UGT1A1, UGT1A7, and UGT1A9"}, {"measurement": "AUC48 h", "setting": "[1]; [10]", "value": "569 ± 328", "unit": "ng·h/mL"}, {"measurement": "Cmax", "setting": "[1]; [10]", "value": "70.2 ± 49.6", "unit": "ng/mL"}, {"measurement": "Cmax", "setting": "[1]; Continuous, (−) R115777 (cycle 1), irinotecan 200–350 mg m^−2, dose-adjusted to 350 mg m^−2, mean±s.d., 11–13 patients", "value": "63.4 ± 37.4", "unit": "ng/mL"}, {"measurement": "AUC48 h", "setting": "[1]; Intermittent, (+) R115777 200–400 mg b.i.d. (cycle 2), irinotecan 350 mg m^−2, mean±s.d., 13 patients", "value": "375 ± 146", "unit": "ng·h/mL"}, {"measurement": "AUCcar Mean diff", "setting": "[2]", "value": "-26.7 ± 10.1", "unit": "ng·h/mL"}, {"measurement": "AUClac Mean diff", "setting": "[2]", "value": "-59.7 ± 34.7", "unit": "ng·h/mL"}, {"measurement": "REClac (relative extent of conversion, AUCSN-38/AUCirinotecan × 100%, lactone)", "setting": "[2]", "value": "6.91±3.05", "unit": "%"}, {"measurement": "REClac Mean diff", "setting": "[2]", "value": "−0.57±0.50", "unit": "%"}, {"measurement": "RECtotal (relative extent of conversion, AUCSN-38/AUCirinotecan × 100%, total)", "setting": "[2]", "value": "2.72±1.02", "unit": "%"}, {"measurement": "RECtotal Mean diff", "setting": "[2]", "value": "−0.09±0.13", "unit": "%"}, {"measurement": "half-life", "setting": "clinical [3]; in vivo", "value": "13.4 ± 4.44", "unit": "h"}, {"measurement": "half-life", "setting": "clinical [3]; in vivo, 350 mg", "value": "18.1 ± 13.1", "unit": "h"}, {"measurement": "Cmax", "setting": "clinical [3]; plasma, intravenous", "value": "41.5 ± 20.1", "unit": "ng/mL"}, {"measurement": "AUC(0-t)", "setting": "clinical [3]; plasma, intravenous, 350 mg", "value": "326 ± 134", "unit": "ng·h/mL"}]}, {"molecule": "CCc1c2c(nc3ccc(OC(=O)N4CCC(N5CCCCC5)CC4)cc13)-c1cc3c(c(=O)n1C2)COC(=O)[C@]3(O)CC", "note": "[irinotecan]", "values": [{"measurement": "AUC48 h", "setting": "[4]", "value": "20 270±6020 ng h ml^−1"}, {"measurement": "MTD (irinotecan dose in the combination)", "setting": "[5]; given every 3 weeks, with R115777 300 mg b.i.d. for 14 consecutive days", "value": 350, "unit": "mg m^−2"}, {"measurement": "AUCcar Mean diff", "setting": "[2]", "value": "-1950 ± 641", "unit": "ng·h/mL"}, {"measurement": "AUClac Mean diff", "setting": "[2]", "value": "-269 ± 101", "unit": "ng·h/mL"}, {"measurement": "Cmax", "setting": "clinical [3]; in vivo", "value": "3620 ± 632", "unit": "ng/mL"}]}, {"molecule": "CC(=O)O[C@@]12CO[C@@H]1C[C@H](O)[C@@]1(C)C(=O)[C@H](O)C3=C(C)[C@@H](OC(=O)[C@H](O)[C@@H](NC(=O)OC(C)(C)C)c4ccccc4)C[C@@](O)([C@@H](OC(=O)c4ccccc4)[C@H]21)C3(C)C", "note": "[docetaxel]", "values": [{"measurement": "plasma AUC of docetaxel", "setting": "[6]; continuous R115777 (200 mg b.i.d.), subset of subjects", "value": "relatively unchanged"}, {"measurement": "effect of R115777 on the systemic exposure to docetaxel", "setting": "[6]; single-dose administration of R115777 (200 or 300 mg)", "value": "little effect"}]}, {"molecule": "Cn1cncc1[C@@](N)(c1ccc(Cl)cc1)c1ccc2c(c1)c(-c1cccc(Cl)c1)cc(=O)n2C", "note": "[R115777, (R)-6-[amino(4-chlorophenyl)(1-methyl-1H-imidazol-5-yl)methyl]-4-(3-chloro-phenyl)-1-methyl-2(1H)-quinolinone]", "values": [{"measurement": "tmax", "setting": "clinical [7]", "value": 2.1, "unit": "h"}, {"measurement": "AUC(0-t)", "setting": "clinical [7]; 200 mg", "value": "3240 ± 1590", "unit": "ng·h/mL"}, {"measurement": "Cmax", "setting": "clinical [7]; 200 mg", "value": "840 ± 551", "unit": "ng/mL"}, {"measurement": "tmax", "setting": "clinical [7]; 200 mg", "value": 2, "unit": "h"}, {"measurement": "AUC12 h Ratio (R115777 with irinotecan to R115777 alone)", "setting": "[8]; Continuous", "value": "101 (68–149) percent"}, {"measurement": "Cmax Ratio (R115777 with irinotecan to R115777 alone)", "setting": "[8]; Continuous", "value": "93 (63–137) percent"}, {"measurement": "Cmax", "setting": "[8]; Continuous, oral R115777 200 mg b.i.d., (+) Irinotecan 200–350 mg m^−2, mean±s.d., 11–13 patients", "value": "735 ± 377", "unit": "ng/mL"}, {"measurement": "AUC12 h Ratio (R115777 with irinotecan to R115777 alone)", "setting": "[8]; Intermittent", "value": "109 (93–127) percent"}, {"measurement": "Cmax Ratio (R115777 with irinotecan to R115777 alone)", "setting": "[8]; Intermittent", "value": "106 (89–126) percent"}, {"measurement": "AUC12 h", "setting": "[8]; [11]", "value": "3170 ± 1550", "unit": "ng·h/mL"}, {"measurement": "Cmax", "setting": "[8]; [11]", "value": "663 ± 296", "unit": "ng/mL"}, {"measurement": "tmax", "setting": "[8]; Intermittent, oral R115777 200–400 mg b.i.d., (+) Irinotecan 350 mg m^−2, 12–13 patients", "value": 2.0, "unit": "h"}, {"measurement": "tmax", "setting": "[8]; Intermittent, oral R115777 200–400 mg b.i.d., (−) Irinotecan, 12–13 patients", "value": 2.0, "unit": "h"}, {"measurement": "time at which peak plasma concentrations were observed", "setting": "[8]; after oral administration, with or without co-administration of irinotecan", "value": 2, "unit": "h"}, {"measurement": "decrease in the peak concentration in the combination therapy", "setting": "[8]; [12]", "value": 7.0, "unit": "%"}, {"measurement": "increase in AUC in the combination therapy", "setting": "[8]; [12]", "value": 1.0, "unit": "%"}, {"measurement": "increase in AUC following administration of irinotecan", "setting": "[8]; [13]", "value": 9.0, "unit": "%"}, {"measurement": "increase in peak concentration following administration of irinotecan", "setting": "[8]; [13]", "value": 6.0, "unit": "%"}, {"measurement": "isozyme with a minor role in N-glucuronidation", "setting": "UGT1A; ref Mannens et al", "value": "UGT1A3"}, {"measurement": "prominent isozyme producing the N-glucuronide", "setting": "UGT1A; ref Mannens et al", "value": "UGT1A4"}, {"measurement": "inhibition of P-glycoprotein", "setting": "ABCB1 (P-glycoprotein); at physiologically relevant concentrations", "value": "does not significantly inhibit"}, {"measurement": "ABCB1 substrate", "setting": "ABCB1 (P-glycoprotein); preliminary data", "value": "not likely to be a substrate"}, {"measurement": "effect on CYP3A4 activity", "setting": "CYP3A4", "value": "inhibit CYP3A4 activity"}, {"measurement": "MTD (R115777 dose in the combination)", "setting": "[5]; oral, 14 consecutive days in 21-day cycles, with irinotecan 350 mg m^−2 every 3 weeks", "value": 300, "unit": "mg b.i.d."}]}]}
